Paper PMC8341105, “Mapping the energy landscape of protein–ligand binding via linear free energy relationships determined by protein NMR relaxation dispersion” (RSC Chemical Biology, 2020)
Where “and” joins values, the source holds several entries; their conditions need not be identical. Equal entries are not always repeated. Where two headings read alike, the source gives them in different places.

Assays:
galectin-3C [1] = biological target: T1, galectin-3C (Homo sapiens, UniProt P17931); assay: 15N CPMG relaxation dispersion of ligand binding kinetics; conditions: for kex, Group 1: Group 1 residues fitted jointly: slow exchange corresponding to ligand binding/unbinding; for kex, Group 2: Group 2 residues fitted jointly: fast conformational exchange independent of ligand binding/unbinding; for Population (relative population of the bound state, pB), Group 1: global fit of Group 1 residues, near-saturated NMR sample
T1 construct: the carbohydrate-recognition domain of galectin-3 (galectin-3C); made in house
Source text: We measured equilibrium exchange between free and ligand-bound states of galectin-3C using ^15N CPMG relaxation dispersion experiments[15] acquired on near-saturated samples at two static magnetic field strengths. […] We analyzed the relaxation dispersion profiles using a two-state exchange model (eqn (1)–(4)).[18,27,28] […] All residues within a given group were then fitted jointly to yield global exchange parameters, kex and p, and residue-specific ΔδCPMG (ESI, ^† Table S1 lists all residues included in the fit for the two groups of each complex together with the fitted parameters). In the following, we focus on the exchange related to ligand binding and release.
In the present case, we determined all exchange parameters directly from the relaxation dispersion data. […] This requires that the ligand and protein concentrations are measured accurately, Kd is known from previous experiments, and the NMR spectra of the free and bound states are available; these requirements are easily met in most cases. While the amplitude and shape of the relaxation dispersion profile depends intricately on the populations, rates, and chemical shift difference, it may be expected that off-rates can be determined for systems with dissociation constants in the range of 0.1 μM to 1 mM.
^15N-Labeled galectin-3C samples were prepared by extensive dialysis (Slide-A-Lyzer MINI Dialysis, ThermoScientific) against 5 mM 4-(2-hydroxyethyl)-1-piperazinethanesulfonic acid (HEPES) buffer to remove all lactose, followed by centrifugation at 14 000 rpm for 5 minutes to remove any aggregates. The protein concentration was determined by UV absorption at 280 nm, as described before.[33] […] Ligand–galectin-3C complexes were prepared by titrating freshly sonicated stock solutions of the ligands into apo galectin-3C samples while monitoring the galectin-3C chemical shifts in the ^15N heteronuclear single-quantum correlation (HSQC) spectrum. At the end of each titration, the total amount of added DMSO in the L2 and L3 samples was 2% (v/v).
Relaxation-compensated CPMG relaxation dispersion experiments[15] were performed using the constant-time approach[34] covering 18–24 different refocusing frequencies, νcp. An equilibration period of 5 ms was added prior to the CPMG refocusing pulse train to ensure that the initial magnetizations reflect the relative populations of the exchanging states.[35] […] Spectra were processed using NMRPipe.[37] The processing protocol involved a solvent filter, cosine-squared apodization functions, zero filling to twice the number of increments in all dimensions, and a polynomial baseline correction in the ^1H dimension. Relaxation rates were extracted using PINT, which employs line-shape fitting to resolve overlapped peaks.[38] Peak intensities were evaluated using a weighted sum of Lorentzian and Gaussian line shapes. Standard deviations were determined by propagating the errors of intensities estimated from the baseplane noise. Error estimates are reported as one standard deviation.
The relaxation dispersion data were analyzed using CPMGfit v2.22, an in-house Matlab program.

galectin-3C [2] = biological target: T1, galectin-3C; set-up: method as in PMID 20873837; conditions: ITC under sample conditions near-identical to those used for CPMG dispersion experiments; determined previously; cited from earlier work
[3] = k on is determined from Kd and koff (kon = koff/Kd)
[4] = koff = kex(1 − pB), 15N CPMG relaxation dispersion, 301 K, near-saturated samples

T1 sequence (P17931 118-248 limits assumed): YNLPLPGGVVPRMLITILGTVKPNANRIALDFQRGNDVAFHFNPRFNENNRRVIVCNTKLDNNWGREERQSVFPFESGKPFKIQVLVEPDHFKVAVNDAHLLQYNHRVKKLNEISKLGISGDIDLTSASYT

## 3′-benzamido-N-acetyllactosamine [Ligand L2]
galectin-3C [1]
  kex, Group 1: 385 ± 126 s⁻¹
  kex, Group 2: 5370 ± 850 s⁻¹
  Population (relative population of the bound state, pB), Group 1: 0.93–0.94 and 0.93 ± 0.04
galectin-3C [1]; [3]
  kon: 1.6 ± 0.5 10^6 M^−1 s^−1
galectin-3C [1]; [4]
  koff: 28 ± 9 s⁻¹
galectin-3C [2]
  Kd: 18.2 ± 0.2 µM

## OC[C@H]1O[C@@H](S[C@@H]2O[C@H](CO)[C@@H](O)[C@H](O)[C@H]2O)[C@H](O)[C@@H](n2cc(-c3ccccc3F)nn2)[C@H]1O [oL4, ortho-fluoro-phenyltriazolyl-galactosylthioglucoside]
galectin-3C [1]
  kex, Group 1: 1210 ± 209 s⁻¹
  kex, Group 2: 15800 ± 386 s⁻¹
  Population (relative population of the bound state, pB), Group 1: 0.97 ± 0.01
galectin-3C [1]; k on is determined from Kd and koff (kon = koff/Kd), read-out: k on
  kon: 4.4e+06 ± 1.1e+06 M⁻¹ s⁻¹
galectin-3C [1]; koff = kex(1 − pB), 15N CPMG relaxation dispersion, 301 K, near-saturated samples, read-out: k off
  koff: 32 ± 5 s⁻¹

## 3′-(4-methoxy-2,3,5,6-tetrafluorobenzamido)-N-acetyllactosamine [Ligand L3]
galectin-3C [1]
  kex, Group 1: 123 ± 20 s⁻¹
  kex, Group 2: 4110 ± 760 s⁻¹
  Population (relative population of the bound state, pB), Group 1: 0.93–0.94 and 0.94 ± 0.01
galectin-3C [1]; [3]
  kon: 2.4 ± 0.4 10^6 M^−1 s^−1
galectin-3C [1]; [4]
  koff: 8 ± 1 s⁻¹
galectin-3C [2]
  Kd: 3.3 ± 0.1 µM

## OC[C@H]1O[C@@H](S[C@@H]2O[C@H](CO)[C@@H](O)[C@H](O)[C@H]2O)[C@H](O)[C@@H](n2cc(-c3ccc(F)cc3)nn2)[C@H]1O [pL4, para-fluoro-phenyltriazolyl-galactosylthioglucoside]
galectin-3C [1]
  koff: 13 ± 1 s⁻¹
  kon: 5.2e+06 ± 800000 M⁻¹ s⁻¹
  kex, Group 1: 859 ± 115 s⁻¹
  kex, Group 2: 8386 ± 691 s⁻¹
  Population (relative population of the bound state, pB), Group 1: 0.99 ± 0.01
galectin-3C [2]
  Kd: 2.5 ± 0.3 µM

## OC[C@H]1O[C@@H](S[C@@H]2O[C@H](CO)[C@@H](O)[C@H](O)[C@H]2O)[C@H](O)[C@@H](n2cc(-c3cccc(F)c3)nn2)[C@H]1O [mL4, meta-fluoro-phenyltriazolyl-galactosylthioglucoside]
galectin-3C [1]
  koff: 8 ± 1 s⁻¹
  kon: 3.9e+06 ± 700000 M⁻¹ s⁻¹
  kex, Group 1: 808 ± 55 s⁻¹
  kex, Group 2: 4804 ± 448 s⁻¹
